According to ChEMBL document CHEMBL5724806, “Unraveling interindividual differences and functional consequences of gut microbial metabolism of immunosuppressants” (2024):

Columns and labels:
Type in all cases: ADME
[1] = (§1) The drug is tested on Alloscardovia omnicolens strain: DSM21503 for biotransformation under anaerobic condition. The drug concentrations were measured over 6 timepoints collected between 0 and 12 hours of incubation by liquid-chromatography-coupled mass spectrometry (LC–MS); parameters: dose 5 uM, timepoint 0, 1.5, 3, 6, 9, 12 hours; details: 5 µM
[2] = The drug is tested on Streptococcus sanguinis strain: DSM20567 for biotransformation under anaerobic condition. The drug concentrations were measured over 6 timepoints collected between 0 and 12 hours of incubation by liquid-chromatography-coupled mass spectrometry (LC–MS); parameters: dose 5 uM, timepoint 0, 1.5, 3, 6, 9, 12 hours; details: 5 µM
[3] = The drug is tested on Escherichia coli strain: DSM27469 for biotransformation under anaerobic condition. The drug concentrations were measured over 6 timepoints collected between 0 and 12 hours of incubation by liquid-chromatography-coupled mass spectrometry (LC–MS); parameters: dose 5 uM, timepoint 0, 1.5, 3, 6, 9, 12 hours; details: 5 µM
[4] = The drug is tested on Actinomyces naeslundi strain: DSM43013 for biotransformation under anaerobic condition. The drug concentrations were measured over 6 timepoints collected between 0 and 12 hours of incubation by liquid-chromatography-coupled mass spectrometry (LC–MS); parameters: dose 5 uM, timepoint 0, 1.5, 3, 6, 9, 12 hours; details: actinomyces naeslundii, 5 µM
[5] = The drug is tested on Eubacterium hallii strain: DSM3353 for biotransformation under anaerobic condition. The drug concentrations were measured over 6 timepoints collected between 0 and 12 hours of incubation by liquid-chromatography-coupled mass spectrometry (LC–MS); parameters: dose 5 uM, timepoint 0, 1.5, 3, 6, 9, 12 hours; details: anaerobutyricum hallii, 5 µM
[6] = as §1, with “the gut metagenome community of P-02 with ENA study accession number: PRJEB31790” for “Alloscardovia omnicolens strain: DSM21503”, “7” for “6”; parameters: dose 5 uM, timepoint 0, 0.75, 1.5, 3, 6, 9, 12 hours; details: 5 µM
[7] = The drug is tested on Streptococcus salivarius strain: DSM20560 for biotransformation under anaerobic condition. The drug concentrations were measured over 6 timepoints collected between 0 and 12 hours of incubation by liquid-chromatography-coupled mass spectrometry (LC–MS); parameters: dose 5 uM, timepoint 0, 1.5, 3, 6, 9, 12 hours; details: 5 µM
[8] = as §1, with “the gut metagenome community of A-05 with ENA study accession number: PRJEB31790” for “Alloscardovia omnicolens strain: DSM21503”, “7” for “6”; parameters: dose 5 uM, timepoint 0, 0.75, 1.5, 3, 6, 9, 12 hours; details: 5 µM
[9] = (§2) The drug is tested on the gut metagenome community of A-04 with ENA study accession number: PRJEB31790 for biotransformation under microaerobic condition. The drug concentrations were measured over 7 timepoints collected between 0 and 12 hours of incubation by liquid-chromatography-coupled mass spectrometry (LC–MS); parameters: dose 5 uM, timepoint 0, 0.75, 1.5, 3, 6, 9, 12 hours; details: 5 µM
[10] = The drug is tested on Clostridium ramosum strain: DSM1402 for biotransformation under anaerobic condition. The drug concentrations were measured over 6 timepoints collected between 0 and 12 hours of incubation by liquid-chromatography-coupled mass spectrometry (LC–MS); parameters: dose 5 uM, timepoint 0, 1.5, 3, 6, 9, 12 hours; details: thomasclavelia ramosa, 5 µM
[11] = as §2, with “A-10” for “A-04”, “anaerobic” for “microaerobic”; parameters: dose 5 uM, timepoint 0, 0.75, 1.5, 3, 6, 9, 12 hours; details: 5 µM
[12] = The drug is tested on Bifidobacterium longum strain: DSM20088 for biotransformation under anaerobic condition. The drug concentrations were measured over 6 timepoints collected between 0 and 12 hours of incubation by liquid-chromatography-coupled mass spectrometry (LC–MS); parameters: dose 5 uM, timepoint 0, 1.5, 3, 6, 9, 12 hours; details: 5 µM
[13] = The drug is tested on Gemella morbillorum strain: DSM20572 for biotransformation under anaerobic condition. The drug concentrations were measured over 6 timepoints collected between 0 and 12 hours of incubation by liquid-chromatography-coupled mass spectrometry (LC–MS); parameters: dose 5 uM, timepoint 0, 1.5, 3, 6, 9, 12 hours; details: 5 µM
[14] = The drug is tested on Collinsella aerofaciens strain: DSM3979 for biotransformation under anaerobic condition. The drug concentrations were measured over 6 timepoints collected between 0 and 12 hours of incubation by liquid-chromatography-coupled mass spectrometry (LC–MS); parameters: dose 5 uM, timepoint 0, 1.5, 3, 6, 9, 12 hours; details: 5 µM
[15] = The drug is tested on Akkermansia muciniphila strain: DSM22959 for biotransformation under anaerobic condition. The drug concentrations were measured over 6 timepoints collected between 0 and 12 hours of incubation by liquid-chromatography-coupled mass spectrometry (LC–MS); parameters: dose 5 uM, timepoint 0, 1.5, 3, 6, 9, 12 hours; details: 5 µM
[16] = The drug is tested on Blautia hansenii strain: DSM20583 for biotransformation under anaerobic condition. The drug concentrations were measured over 6 timepoints collected between 0 and 12 hours of incubation by liquid-chromatography-coupled mass spectrometry (LC–MS); parameters: dose 5 uM, timepoint 0, 1.5, 3, 6, 9, 12 hours; details: 5 µM
[17] = as §2, with “A-02” for “A-04”; parameters: dose 5 uM, timepoint 0, 0.75, 1.5, 3, 6, 9, 12 hours; details: 5 µM
[18] = as §2, with “T-04” for “A-04”, “anaerobic” for “microaerobic”; parameters: dose 5 uM, timepoint 0, 0.75, 1.5, 3, 6, 9, 12 hours; details: 5 µM
[19] = The drug is tested on Bacteroides xylanisolvens strain: HM 722 for biotransformation under anaerobic condition. The drug concentrations were measured over 6 timepoints collected between 0 and 12 hours of incubation by liquid-chromatography-coupled mass spectrometry (LC–MS); parameters: dose 5 uM, timepoint 0, 1.5, 3, 6, 9, 12 hours; details: 5 µM
[20] = The drug is tested on Escherichia coli strain: DSM27469 for biotransformation under microaerobic condition. The drug concentrations were measured over 6 timepoints collected between 0 and 12 hours of incubation by liquid-chromatography-coupled mass spectrometry (LC–MS); parameters: dose 5 uM, timepoint 0, 1.5, 3, 6, 9, 12 hours; details: 5 µM
[21] = The drug is tested on Lactobacillus paracasei strain: ATCC27092 for biotransformation under microaerobic condition. The drug concentrations were measured over 6 timepoints collected between 0 and 12 hours of incubation by liquid-chromatography-coupled mass spectrometry (LC–MS); parameters: dose 5 uM, timepoint 0, 1.5, 3, 6, 9, 12 hours; details: lacticaseibacillus paracasei, 5 µM
[22] = as §2, with “P-01” for “A-04”, “anaerobic” for “microaerobic”; parameters: dose 5 uM, timepoint 0, 0.75, 1.5, 3, 6, 9, 12 hours; details: 5 µM
[23] = The drug is tested on Actinomyces graevenitzii strain: DSM15540 for biotransformation under microaerobic condition. The drug concentrations were measured over 6 timepoints collected between 0 and 12 hours of incubation by liquid-chromatography-coupled mass spectrometry (LC–MS); parameters: dose 5 uM, timepoint 0, 1.5, 3, 6, 9, 12 hours; details: 5 µM
[24] = as §2, with “P-04” for “A-04”; parameters: dose 5 uM, timepoint 0, 0.75, 1.5, 3, 6, 9, 12 hours; details: 5 µM
[25] = as §2, with “P-02” for “A-04”; parameters: dose 5 uM, timepoint 0, 0.75, 1.5, 3, 6, 9, 12 hours; details: 5 µM
[26] = The drug is tested on Roseburia intestinalis strain: DSM14610 for biotransformation under anaerobic condition. The drug concentrations were measured over 6 timepoints collected between 0 and 12 hours of incubation by liquid-chromatography-coupled mass spectrometry (LC–MS); parameters: dose 5 uM, timepoint 0, 1.5, 3, 6, 9, 12 hours; details: 5 µM
[27] = as §2, with “A-08” for “A-04”; parameters: dose 5 uM, timepoint 0, 0.75, 1.5, 3, 6, 9, 12 hours; details: 5 µM
[28] = The drug is tested on Clostridium bolteae strain: DSM15670 for biotransformation under anaerobic condition. The drug concentrations were measured over 6 timepoints collected between 0 and 12 hours of incubation by liquid-chromatography-coupled mass spectrometry (LC–MS); parameters: dose 5 uM, timepoint 0, 1.5, 3, 6, 9, 12 hours; details: enterocloster bolteae, 5 µM
[29] = The drug is tested on Gemella haemolysans strain: DSM107751 for biotransformation under anaerobic condition. The drug concentrations were measured over 6 timepoints collected between 0 and 12 hours of incubation by liquid-chromatography-coupled mass spectrometry (LC–MS); parameters: dose 5 uM, timepoint 0, 1.5, 3, 6, 9, 12 hours; details: 5 µM
[30] = The drug is tested on Gemella haemolysans strain: DSM107751 for biotransformation under microaerobic condition. The drug concentrations were measured over 6 timepoints collected between 0 and 12 hours of incubation by liquid-chromatography-coupled mass spectrometry (LC–MS); parameters: dose 5 uM, timepoint 0, 1.5, 3, 6, 9, 12 hours; details: 5 µM

C[C@]12CCC(=O)C=C1CC[C@@H]1[C@@H]2C(=O)C[C@@]2(C)[C@H]1CC[C@]2(O)C(=O)CO [CORTISONE]
Bacterial Biotransformation [1]: Compound NOT metabolized
Bacterial Biotransformation [2]: Compound NOT metabolized
Bacterial Biotransformation [3]: Compound NOT metabolized
Bacterial Biotransformation [4]: Compound NOT metabolized
Bacterial Biotransformation [5]: Compound NOT metabolized
Bacterial Biotransformation [6]: Compound metabolized
Bacterial Biotransformation [7]: Compound NOT metabolized
Bacterial Biotransformation [8]: Compound metabolized
Bacterial Biotransformation [9]: Compound metabolized
Bacterial Biotransformation [10]: Compound NOT metabolized
Bacterial Biotransformation [11]: Compound metabolized
Bacterial Biotransformation [12]: Compound NOT metabolized
Bacterial Biotransformation [13]: Compound NOT metabolized
Bacterial Biotransformation [14]: Compound NOT metabolized
Bacterial Biotransformation [15]: Compound NOT metabolized
Bacterial Biotransformation [16]: Compound NOT metabolized
Bacterial Biotransformation [17]: Compound metabolized
Bacterial Biotransformation [18]: Compound NOT metabolized
Bacterial Biotransformation [19]: Compound NOT metabolized
Bacterial Biotransformation [20]: Compound NOT metabolized
Bacterial Biotransformation [21]: Compound NOT metabolized
Bacterial Biotransformation [22]: Compound metabolized
Bacterial Biotransformation [23]: Compound NOT metabolized
Bacterial Biotransformation [24]: Compound metabolized
Bacterial Biotransformation [25]: Compound metabolized
Bacterial Biotransformation [26]: Compound NOT metabolized
Bacterial Biotransformation [27]: Compound metabolized
Bacterial Biotransformation [28]: Compound NOT metabolized
Bacterial Biotransformation [29]: Compound NOT metabolized
Bacterial Biotransformation [30]: Compound NOT metabolized

C[C@@H]1C[C@H]2[C@@H]3CCC4=CC(=O)C=C[C@]4(C)[C@@]3(F)[C@@H](O)C[C@]2(C)[C@@]1(O)C(=O)CO [DEXAMETHASONE]
Bacterial Biotransformation [1]: Compound NOT metabolized
Bacterial Biotransformation [2]: Compound NOT metabolized
Bacterial Biotransformation [3]: Compound NOT metabolized
Bacterial Biotransformation [4]: Compound NOT metabolized
Bacterial Biotransformation [5]: Compound NOT metabolized
Bacterial Biotransformation [6]: Compound metabolized
Bacterial Biotransformation [7]: Compound NOT metabolized
Bacterial Biotransformation [8]: Compound NOT metabolized
Bacterial Biotransformation [9]: Compound NOT metabolized
Bacterial Biotransformation [10]: Compound NOT metabolized
Bacterial Biotransformation [11]: Compound NOT metabolized
Bacterial Biotransformation [12]: Compound NOT metabolized
Bacterial Biotransformation [13]: Compound NOT metabolized
Bacterial Biotransformation [14]: Compound NOT metabolized
Bacterial Biotransformation [15]: Compound NOT metabolized
Bacterial Biotransformation [16]: Compound NOT metabolized
Bacterial Biotransformation [17]: Compound metabolized
Bacterial Biotransformation [18]: Compound NOT metabolized
Bacterial Biotransformation [19]: Compound NOT metabolized
Bacterial Biotransformation [20]: Compound NOT metabolized
Bacterial Biotransformation [21]: Compound NOT metabolized
Bacterial Biotransformation [22]: Compound NOT metabolized
Bacterial Biotransformation [23]: Compound NOT metabolized
Bacterial Biotransformation [24]: Compound NOT metabolized
Bacterial Biotransformation [25]: Compound NOT metabolized
Bacterial Biotransformation [26]: Compound NOT metabolized
Bacterial Biotransformation [27]: Compound metabolized
Bacterial Biotransformation [28]: Compound NOT metabolized
Bacterial Biotransformation [29]: Compound NOT metabolized
Bacterial Biotransformation [30]: Compound NOT metabolized

COc1ccc([C@@H]2Sc3ccccc3N(CCN(C)C)C(=O)[C@@H]2OC(C)=O)cc1 [DILTIAZEM]
Bacterial Biotransformation [1]: Compound NOT metabolized
Bacterial Biotransformation [2]: Compound NOT metabolized
Bacterial Biotransformation [3]: Compound NOT metabolized
Bacterial Biotransformation [4]: Compound NOT metabolized
Bacterial Biotransformation [5]: Compound NOT metabolized
Bacterial Biotransformation [6]: Compound metabolized
Bacterial Biotransformation [7]: Compound NOT metabolized
Bacterial Biotransformation [8]: Compound metabolized
Bacterial Biotransformation [9]: Compound metabolized
Bacterial Biotransformation [10]: Compound NOT metabolized
Bacterial Biotransformation [11]: Compound NOT metabolized
Bacterial Biotransformation [12]: Compound NOT metabolized
Bacterial Biotransformation [13]: Compound NOT metabolized
Bacterial Biotransformation [14]: Compound NOT metabolized
Bacterial Biotransformation [15]: Compound NOT metabolized
Bacterial Biotransformation [16]: Compound NOT metabolized
Bacterial Biotransformation [17]: Compound metabolized
Bacterial Biotransformation [18]: Compound NOT metabolized
Bacterial Biotransformation [19]: Compound metabolized
Bacterial Biotransformation [20]: Compound metabolized
Bacterial Biotransformation [21]: Compound NOT metabolized
Bacterial Biotransformation [22]: Compound metabolized
Bacterial Biotransformation [23]: Compound NOT metabolized
Bacterial Biotransformation [24]: Compound NOT metabolized
Bacterial Biotransformation [25]: Compound metabolized
Bacterial Biotransformation [26]: Compound NOT metabolized
Bacterial Biotransformation [27]: Compound metabolized
Bacterial Biotransformation [28]: Compound NOT metabolized
Bacterial Biotransformation [29]: Compound NOT metabolized
Bacterial Biotransformation [30]: Compound NOT metabolized
